Assays:
[1] = system: ERK phosphorylation in KYSE-520 cells; assay: Phospho-ERK cellular assay; format: cell-based; conditions: Homo sapiens, KYSE-520, 2 h, KYSE-520 cells, 2 h at 37° C., phospho-ERK1/2 (Thr202/Tyr204) TR-FRET; read-out: PERK IC50
Outline: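 TR-FRET read-out of ERK1/2 Thr202/Tyr204 phosphorylation was taken after overnight antibody incubation at room temperature. Before that, KYSE-520 cells were treated 2 h at 37 °C with compound dilutions and lysed 30 min. Percent inhibition relative to vehicle and cell-free wells was fitted four-parametrically to give IC50.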

[2] = biological target: SHP-2 enzyme (Met1-Leu525) (Homo sapiens (Human), UniProt Q06124); assay: SHP2 inhibition enzymatic assay; format: biochemical; conditions: 0.5 nM SHP-2 activated by 500 nM IRS1 peptide, 75 μM DiFMUP substrate; read-out: SHP2wt-IC50
Chain of SHP-2 enzyme (Met1-Leu525) (Q06124 1-525): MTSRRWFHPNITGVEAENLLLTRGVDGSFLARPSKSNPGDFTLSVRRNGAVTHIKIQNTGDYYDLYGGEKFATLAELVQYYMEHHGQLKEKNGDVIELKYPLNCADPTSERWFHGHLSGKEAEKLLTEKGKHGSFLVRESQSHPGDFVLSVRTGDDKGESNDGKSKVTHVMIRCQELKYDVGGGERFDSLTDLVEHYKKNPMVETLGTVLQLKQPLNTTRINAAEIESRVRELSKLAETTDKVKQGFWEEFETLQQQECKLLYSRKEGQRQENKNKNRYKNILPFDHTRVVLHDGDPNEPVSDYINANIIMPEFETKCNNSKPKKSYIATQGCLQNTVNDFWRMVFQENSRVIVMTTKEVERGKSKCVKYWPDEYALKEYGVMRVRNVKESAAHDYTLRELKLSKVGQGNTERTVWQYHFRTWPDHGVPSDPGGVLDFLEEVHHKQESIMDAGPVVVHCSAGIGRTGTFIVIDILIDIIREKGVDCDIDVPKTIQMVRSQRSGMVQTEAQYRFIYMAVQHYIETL
Outline: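 SHP-2 (Met1-Leu525), 0.5 nM, activated with 500 nM IRS1 bis-phosphopeptide, preincubated 30 min with compounds in HEPES pH 7.2 buffer with 5 mM DTT. 75 μM DiFMUP added for 30 min at room temperature, stopped with bpV; fluorescence read. IC50 from four-parameter logistic fit of % inhibition.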

Row | Compound | IC50 [1] [nM] | IC50 [2] [nM]
1 | NC[C@]1(c2ccccc2F)[C@@H]2CCN(c3cnc4c(-c5ccc6nn(C7COC7)cc6c5Cl)n[nH]c4n3)C[C@@H]21 [Example 229, ((1S,6R,7R)-3-(3-(4-chloro-2-(oxetan-3-yl)-2H-indazol-5-yl)-1H-pyrazolo[3,4-b]pyrazin-6-yl)-7-(2-fluorophenyl)-3-azabicyclo[4.1.0]heptan-7-yl)methanamine] | < 1000 | < 500
2 | NC[C@]1(c2ccccc2F)[C@@H]2CCN(c3cnc4c(-c5cc6ccccc6c(=O)[nH]5)n[nH]c4n3)C[C@@H]21 [Example 235, 3-(6-((1S,6R,7R)-7-(aminomethyl)-7-(2-fluorophenyl)-3-azabicyclo[4.1.0]heptan-3-yl)-1H-pyrazolo[3,4-b]pyrazin-3-yl)isoquinolin-1(2H)-one] | > 5000 | < 500
3 | NC[C@]1(c2ccccc2F)[C@@H]2CCN(c3cnc4c(-c5ccc(F)c6[nH]c(=O)ccc56)n[nH]c4n3)C[C@@H]21 [Example 236, 5-(6-((1S,6R,7R)-7-(aminomethyl)-7-(2-fluorophenyl)-3-azabicyclo[4.1.0]heptan-3-yl)-1H-pyrazolo[3,4-b]pyrazin-3-yl)-8-fluoroquinolin-2(1H)-one] | < 1000 | < 500
4 | NC[C@]1(c2ccccc2F)[C@@H]2CCN(c3cnc4c(-c5ccc6ccc(=O)[nH]c6c5Cl)n[nH]c4n3)C[C@@H]21 [Example 237, 7-(6-((1S,6R,7R)-7-(aminomethyl)-7-(2-fluorophenyl)-3-azabicyclo[4.1.0]heptan-3-yl)-1H-pyrazolo[3,4-b]pyrazin-3-yl)-8-chloroquinolin-2(1H)-one] | < 1000 | < 500
5 | NC[C@]1(c2ccccc2F)[C@@H]2CCN(c3cnc4c(-c5ccc(C(N)=O)c(Cl)c5Cl)n[nH]c4n3)C[C@@H]21 [Example 241, 4-(6-((1S,6R,7R)-7-(aminomethyl)-7-(2-fluorophenyl)-3-azabicyclo[4.1.0]heptan-3-yl)-1H-pyrazolo[3,4-b]pyrazin-3-yl)-2,3-dichlorobenzamide] | < 1000 | < 500
6 | NC[C@]1(c2ccccc2F)[C@@H]2CCN(c3cnc4c(-c5cccc6ncccc56)n[nH]c4n3)C[C@@H]21 [Example 242, ((1S,6R,7R)-7-(2-fluorophenyl)-3-(3-(quinolin-5-yl)-1H-pyrazolo[3,4-b]pyrazin-6-yl)-3-azabicyclo[4.1.0]heptan-7-yl)methanamine] | < 1000 | < 500
7 | NC[C@]1(c2ccccc2F)[C@@H]2CCN(c3cnc4c(-c5ccc6n[nH]cc6c5Cl)n[nH]c4n3)C[C@@H]21 [Example 243, ((1S,6R,7R)-3-(3-(4-chloro-2H-indazol-5-yl)-1H-pyrazolo[3,4-b]pyrazin-6-yl)-7-(2-fluorophenyl)-3-azabicyclo[4.1.0]heptan-7-yl)methanamine] | < 1000 | < 500
8 | N#Cc1ccc(-c2n[nH]c3nc(N4CC[C@@H]5[C@H](C4)[C@@]5(CN)c4ccccc4F)cnc23)c(Cl)c1 [Example 245, 4-(6-((1S,6R,7R)-7-(aminomethyl)-7-(2-fluorophenyl)-3-azabicyclo[4.1.0]heptan-3-yl)-1H-pyrazolo[3,4-b]pyrazin-3-yl)-3-chlorobenzonitrile] | < 1000 | < 500
9 | NC[C@]1(c2ccccc2F)[C@@H]2CCN(c3cnc4c(-c5ccc6cnccc6c5)n[nH]c4n3)C[C@@H]21 [Example 247, ((1S,6R,7R)-7-(2-fluorophenyl)-3-(3-(isoquinolin-6-yl)-1H-pyrazolo[3,4-b]pyrazin-6-yl)-3-azabicyclo[4.1.0]heptan-7-yl)methanamine] | < 1000 | < 500
10 | NC[C@]1(c2ccccc2F)[C@@H]2CCN(c3cnc4c(-c5ccc6ccncc6c5)n[nH]c4n3)C[C@@H]21 [Example 248, ((1S,6R,7R)-7-(2-fluorophenyl)-3-(3-(isoquinolin-7-yl)-1H-pyrazolo[3,4-b]pyrazin-6-yl)-3-azabicyclo[4.1.0]heptan-7-yl)methanamine] | < 1000 | < 500
11 | Cc1cc(C(N)=O)ccc1-c1n[nH]c2nc(N3CC[C@@H]4[C@H](C3)[C@@]4(CN)c3ccccc3F)cnc12 [Example 250, 4-(6-((1S,6R,7R)-7-(aminomethyl)-7-(2-fluorophenyl)-3-azabicyclo[4.1.0]heptan-3-yl)-1H-pyrazolo[3,4-b]pyrazin-3-yl)-3-methylbenzamide] | < 1000 | < 500

Results, then the molecule that gave them:

Row | IC50 [1] [nM] | IC50 [2] [nM] | Compound
12 | < 1000 | < 500 | NC[C@]1(c2ccccc2F)[C@@H]2CCN(c3cnc4c(-c5ccc6c(c5)NC(=O)CC6)n[nH]c4n3)C[C@@H]21 [Example 230, 7-(6-((1S,6R,7R)-7-(aminomethyl)-7-(2-fluorophenyl)-3-azabicyclo[4.1.0]heptan-3-yl)-1H-pyrazolo[3,4-b]pyrazin-3-yl)-3,4-dihydroquinolin-2(1H)-one]
13 | < 1000 | < 500 | NC[C@]1(c2ccccc2F)[C@@H]2CCN(c3cnc4c(-c5ccc6ccc(=O)[nH]c6c5)n[nH]c4n3)C[C@@H]21 [Example 231, 7-(6-((1S,6R,7R)-7-(aminomethyl)-7-(2-fluorophenyl)-3-azabicyclo[4.1.0]heptan-3-yl)-1H-pyrazolo[3,4-b]pyrazin-3-yl)quinolin-2(1H)-one]
14 | < 1000 | < 500 | Cn1c(=O)n(C)c2cc(-c3n[nH]c4nc(N5CC[C@@H]6[C@H](C5)[C@@]6(CN)c5ccccc5F)cnc34)ccc21 [Example 232, 5-(6-((1S,6R,7R)-7-(aminomethyl)-7-(2-fluorophenyl)-3-azabicyclo[4.1.0]heptan-3-yl)-1H-pyrazolo[3,4-b]pyrazin-3-yl)-1,3-dimethyl-1,3-dihydro-2H-benzo[d]imidazol-2-one]
15 | < 1000 | < 500 | NC[C@]1(c2ccccc2F)[C@@H]2CCN(c3cnc4c(-c5ccc6c(c5)NC(=O)C6)n[nH]c4n3)C[C@@H]21 [Example 233, 6-(6-((1S,6R,7R)-7-(aminomethyl)-7-(2-fluorophenyl)-3-azabicyclo[4.1.0]heptan-3-yl)-1H-pyrazolo[3,4-b]pyrazin-3-yl)indolin-2-one]
16 | < 1000 | < 500 | NC[C@]1(c2ccccc2F)[C@@H]2CCN(c3cnc4c(-c5ccc6[nH]c(=O)ccc6c5)n[nH]c4n3)C[C@@H]21 [Example 234, 6-(6-((1S,6R,7R)-7-(aminomethyl)-7-(2-fluorophenyl)-3-azabicyclo[4.1.0]heptan-3-yl)-1H-pyrazolo[3,4-b]pyrazin-3-yl)quinolin-2(1H)-one]
17 | < 1000 | < 500 | NC[C@]1(c2ccccc2F)[C@@H]2CCN(c3cnc4c(-c5ccc6c(c5)CCC(=O)N6)n[nH]c4n3)C[C@@H]21 [Example 238, 6-(6-((1S,6R,7R)-7-(aminomethyl)-7-(2-fluorophenyl)-3-azabicyclo[4.1.0]heptan-3-yl)-1H-pyrazolo[3,4-b]pyrazin-3-yl)-3,4-dihydroquinolin-2(1H)-one]
18 | < 1000 | < 500 | NC[C@]1(c2ccccc2F)[C@@H]2CCN(c3cnc4c(-c5ccc6[nH]c(=O)[nH]c6c5)n[nH]c4n3)C[C@@H]21 [Example 239, 5-(6-((1S,6R,7R)-7-(aminomethyl)-7-(2-fluorophenyl)-3-azabicyclo[4.1.0]heptan-3-yl)-1H-pyrazolo[3,4-b]pyrazin-3-yl)-1,3-dihydro-2H-benzo[d]imidazol-2-one]
19 | < 1000 | < 500 | NC[C@]1(c2ccccc2F)[C@@H]2CCN(c3cnc4c(-c5ccc6c(=O)[nH]ccc6c5)n[nH]c4n3)C[C@@H]21 [Example 240, 6-(6-((1S,6R,7R)-7-(aminomethyl)-7-(2-fluorophenyl)-3-azabicyclo[4.1.0]heptan-3-yl)-1H-pyrazolo[3,4-b]pyrazin-3-yl)isoquinolin-1(2H)-one]
20 | < 1000 | < 500 | CN1Cc2cc(-c3n[nH]c4nc(N5CC[C@@H]6[C@H](C5)[C@@]6(CN)c5ccccc5F)cnc34)ccc2C1=O [Example 244, 5-(6-((1S,6R,7R)-7-(aminomethyl)-7-(2-fluorophenyl)-3-azabicyclo[4.1.0]heptan-3-yl)-1H-pyrazolo[3,4-b]pyrazin-3-yl)-2-methylisoindolin-1-one]
21 | < 1000 | < 500 | Cc1cc(-c2n[nH]c3nc(N4CC[C@@H]5[C@H](C4)[C@@]5(CN)c4ccccc4F)cnc23)ccc1C(N)=O [Example 246, 4-(6-((1S,6R,7R)-7-(aminomethyl)-7-(2-fluorophenyl)-3-azabicyclo[4.1.0]heptan-3-yl)-1H-pyrazolo[3,4-b]pyrazin-3-yl)-2-methylbenzamide]
22 | > 5000 | < 500 | NC[C@]1(c2ccccc2F)[C@@H]2CCN(c3cnc4c(-c5ccc6c(c5)S(=O)(=O)NC6=O)n[nH]c4n3)C[C@@H]21 [Example 249, 6-(6-((1S,6R,7R)-7-(aminomethyl)-7-(2-fluorophenyl)-3-azabicyclo[4.1.0]heptan-3-yl)-1H-pyrazolo[3,4-b]pyrazin-3-yl)benzo[d]isothiazol-3(2H)-one 1,1-dioxide]
23 | < 1000 | < 500 | NC[C@]1(c2ccccc2F)[C@@H]2CCN(c3cnc4c(-c5ccc6c(c5)C(=O)NCC6)n[nH]c4n3)C[C@@H]21 [Example 251, 7-(6-((1S,6R,7R)-7-(aminomethyl)-7-(2-fluorophenyl)-3-azabicyclo[4.1.0]heptan-3-yl)-1H-pyrazolo[3,4-b]pyrazin-3-yl)-3,4-dihydroisoquinolin-1(2H)-one]

Reference: patent US20240109900A1, “AZABICYCLIC SHP2 INHIBITORS” (IRBM S.P.A., priority 2021, published 2024)
